Measurements: PMC7801736 (ACS infectious diseases, 2019)
Converted amounts (≈) assume the structure as drawn. Where two headings read alike, the source gives them in different places.

Key:
in vitro = format: cell-based; conditions: African green monkey
M. tuberculosis H37Rv [1] = assay: Griess assay for NO· quantification, H37Rv; format: cell-based, Mycobacterium tuberculosis; conditions: for NO· production (supernatant nitrite concentration), 20 µM compound / NO· production (supernatant nitrite concentration), 100 µM compound: 2 days
[2] = test system: M. tuberculosis strain fgd1::tn; assay: microbe, parasite or virus in culture; format: cell-based; conditions: for MIC: Mycobacterium tuberculosis, read-out: MIC (µM) fgd1::tn; for MIC shift, fgd1::tn strain: fgd1::tn vs H37Rv
[3] = test system: M. tuberculosis strain ddn::tn; assay: microbe, parasite or virus in culture; format: cell-based; conditions: Mycobacterium tuberculosis, read-out: MIC (µM) ddn::tn
M. tuberculosis fgd1::tn [4] = assay: Griess assay for NO· quantification, fgd1::tn; format: cell-based, Mycobacterium tuberculosis; conditions: F420H2 cofactor deficiency; 20 or 100 µM
[5] = test system: M. tuberculosis streptomycin-sensitive (ss18b) strain; format: cell-based, Mycobacterium tuberculosis; conditions: streptomycin-starved nonreplicating model; 7 days treatment
M. tuberculosis H37Rv [6] = conditions: for time of treatment after which intrabacterial metabolite was detectable: H37Rv, 20 µM JSF-2164
[7] = target: purified M. tuberculosis InhA (Mycobacterium tuberculosis, UniProt P9WGR1); assay: biochemical
[8] = test system: M. tuberculosis fatty acid biosynthesis; format: cell-based, Mycobacterium tuberculosis
M. tuberculosis H37Rv [9] = format: cell-based, Mycobacterium tuberculosis
M. tuberculosis fgd1::tn [10] = conditions: 20 µM JSF-2164
InhA = conditions: cited from earlier work
[11] = read-out: % InhA inhibition at 50 µM with 1% CMC Tween-20, 50 µM compound, 1% CMC Tween-20

Chain of purified M. tuberculosis InhA (P9WGR1 whole entry, looked up): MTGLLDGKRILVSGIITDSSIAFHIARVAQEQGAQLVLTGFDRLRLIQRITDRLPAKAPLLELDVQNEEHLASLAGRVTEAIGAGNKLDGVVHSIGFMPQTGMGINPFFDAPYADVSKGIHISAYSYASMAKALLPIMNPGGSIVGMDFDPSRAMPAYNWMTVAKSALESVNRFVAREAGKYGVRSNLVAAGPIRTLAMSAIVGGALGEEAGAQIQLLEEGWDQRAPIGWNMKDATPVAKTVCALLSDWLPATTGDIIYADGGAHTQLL

SMILES | NO· production (supernatant nitrite concentration), 20 µM compound (M. tuberculosis H37Rv [1]; 20 µM exposure) [µM] | NO· production (supernatant nitrite concentration), 100 µM compound (M. tuberculosis H37Rv [1]; 100 µM exposure) [µM] | MIC [2] [µM] | MIC shift, fgd1::tn strain [2] [fold] | MIC [3] [µM] | NO· production in fgd1::tn strain (M. tuberculosis fgd1::tn [4]) | inhibition at 50 µM [7, 11] [%] | time of treatment after which intrabacterial metabolite was detectable (M. tuberculosis H37Rv [6]) [min] | time of treatment after which intrabacterial metabolite was discernible (M. tuberculosis fgd1::tn [10]) [h] | also measured
COc1cccc(Nc2ccc([N+](=O)[O-])c3nonc23)c1 [JSF-2164, N-(3-methoxyphenyl)-7-nitrobenzo[c][1,2,5]oxadiazol-4-amine] | 0.84 | 6.7 | > 200 | > 20 | 8 (≈ 2.29 µg/mL) | abolished | 44 ± 1 | – | – | CC50 (in vitro): 44 to 87 µM; in vitro efficacy versus ss18b strain [5]: exhibited in vitro efficacy; time at which intrabacterial compound was degraded to a negligible level (M. tuberculosis H37Rv [6]; Mycobacterium tuberculosis): ≥ 4 h; IC50 versus purified InhA relative to MIC against the H37Rv strain ([7]; IC50 larger than MIC): ca. 5 fold; IC50 ([7]; InhA IC50 (µM), without Tween-20, mean ± standard error): 51 µM; IC50 ([7]; InhA IC50 with Tween-20, Tween-20 at 1% of its CMC in enzymatic buffer): 65 ± 16 µM; inhibition at 50 µM ([7]; read-out: InhA Inhibition at 50 µM Cmpd, 50 µM compound, commercial material, mean ± standard error): ≥ 50%; inhibition at 50 µM ([7]; read-out: InhA inhibition at 50 µM compound, synthetic material, 50 µM compound, […]): 44%; effect on MAMEs and FAMEs (TLC) [8]: did not exhibit a pattern similar to that for INH; bactericidal classification (MBC within 4-fold of MIC) (M. tuberculosis H37Rv [9]): not formally bactericidal; reduction in M. tuberculosis colony-forming units/mL (M. tuberculosis H37Rv [9]; 16× MIC, over 7 days, H37Rv): ca. 1 log10
COc1cccc(Nc2ccc(N)c3nonc23)c1 [JSF-3616, N4-(3-methoxyphenyl)-benzo[c][1,2,5]oxadiazole-4,7-diamine] | – | – | 32 (≈ 8.2 µg/mL) | – | 32 (≈ 8.2 µg/mL) | – | 46 ± 2.9 | 30 | 4 | –
COc1cccc(Nc2ccc3nonc3c2N)c1 [JSF-3617, N5-(3-methoxyphenyl)benzo[c][1,2,5]oxadiazole-4,5-diamine] | – | – | 125 (≈ 32 µg/mL) | – | 250 (≈ 64.1 µg/mL) | – | 77 ± 0.74 | 30 | 4 | –
CCCCCCc1ccc(Oc2ccccc2C)c(O)c1 [PT70] | – | – | – | – | – | – | – | – | – | Ki (InhA): 0.0078 µM; residence time (InhA): 24 min
NNC(=O)c1ccncc1 [isoniazid, reference compound] | – | – | 0.078 (≈ 0.0107 µg/mL) | – | 0.078 (≈ 0.0107 µg/mL) | – | – | – | – | –
O=[N+]([O-])c1cn2c(n1)OC[C@@H](OCc1ccc(OC(F)(F)F)cc1)C2 [pretomanid] | 9.8 | 17 | – | > 500 | – | abolished | – | – | – | NO· release (ratio of nitrite concentration to compound dose), 20 µM compound (M. tuberculosis H37Rv [1]; 20 µM exposure, initial 2 days): 49%; NO· release (ratio of nitrite concentration to compound dose), 100 µM compound (M. tuberculosis H37Rv [1]; 100 µM exposure, initial 2 days): 17%
